# Read-outs that look alike come from different tables or passages of the source.
# How the values were obtained:
# [1] = test system: KeratinoSens reporter keratinocytes (luciferase gene under control of the ARE element of the AKR1C2 gene); assay: KeratinoSens ARE-Nrf2 luciferase assay; format: cell-based; details: for ECKS1.5: extrapolated concentration for 1.5 fold luciferase induction; for ECKS4.5: extrapolated concentration for 4.5 fold luciferase induction; for Classification: KeratinoSens, luciferase induction greater than 1.5-fold at non-cytotoxic concentrations
# Experimental: (§1) KeratinoSens Assay for Sensitization and Cellular Viability. The KeratinoSens™ assay was performed according to the OECD guidelines ([OECD, 2018]). Compounds were incubated at 12 concentrations (0.98–2000 μM) for 48 h with cinnamic aldehyde as the positive control. The experiment was repeated on three independent occasions.
# In Vitro Skin Sensitization: KeratinoSens ARE-Nrf2 Luciferase Assay. […] ECKS1.5 represents the extrapolated concentration for which induction of luciferase activity is above the 1.5 fold threshold (i.e., 50% enhanced luciferase activity). The ECKS4.5 values were used for comparison of sensitizing potency.
# model peptide AcPHCKRM = assay: Reactivity toward the model peptide AcPHCKRM (peptide depletion, HPLC/ESI-MS); details: 10 mM compound, 1 mM AcPHCKRM
# Experimental: All solvents were degassed with argon prior to use. […] Monoepoxides PGE, 1 or 2 were prepared in DMSO (40 mM, 100 μL) together with potassium phosphate buffer (100 mM, pH 7.4) (200 μL) and separately added to a vial purged with argon containing AcPHCKRM dissolved in DMSO (4 mM, 100 μL).
# Based on our previous studies regarding the chemical reactivity of the epoxide-containing compounds ([O’Boyle et al., 2014]; [Ponting et al., 2019]), the depletion of the nucleophilic hexapeptide Ac-Pro-His-Cys-Lys-Arg-Met-OH (AcPHCKRM) was analyzed in reaction mixtures at pH 7.4 with a 10-fold excess of the respective test chemical in a mixture of phosphate buffer and DMSO.
# [2] = Cellular viability (MTT) in the KeratinoSens assay; format: cell-based; details: human, KeratinoSens reporter keratinocytes, 50% reduction in cellular viability, read-out: Cytotoxicity IC50
# Experimental: as §1
# [3] = set-up: method as in O’Boyle et al., 2014; details: ref O’Boyle et al., 2014, cited from earlier work
# [4] = test system: KeratinoSens reporter keratinocytes (luciferase gene under control of the ARE element of the AKR1C2 gene); details: cited from earlier work
# [5] = test system: KeratinoSens reporter keratinocytes; details: read-out: Cytotoxicity IC50; 50% reduction in cellular viability, MTT assay; ref Delaine et al., 2011; cited from earlier work
# CBA/Ca mice [6] = details: cited from earlier work
# mice and guinea pigs = details: cited from earlier work
# CBA/Ca mice [7] = assay: Murine local lymph node assay (LLNA); format: in vivo
# Experimental: (§2) Experimental Animals. Female CBA/Ca mice, 7 or 9 weeks of age, were purchased from NOVA SCB Charles River, Germany. The mice were housed in HEPA filtered airflow cages and kept on standard laboratory diet and water ad lib. The regional ethics committee, Jordbruksverket, approved the protocol and the procedure was performed in accordance with the guidelines. Sensitization Potential of PinoDGE in Mice. […] Computational Techniques. Reactivity of cysteine residues toward the compounds under investigation was modeled as reactivity toward methanethiolate. Reactivity calculations were carried out at the B3LYP-D3/6–31+G**([Stephens et al., 1994]; [Becke, 1988]; [Slater, 1974]; [Goerigk and Grimme, 2011]; [Grimme et al., 2010]; [Ditchfield et al., 1971]) level of theory in Jaguar (Schrodinger LLC, N. Y. Jaguar, version 7.6, 2009). Further experimental details are contained in the supplementary information. Cross-Linking Procedure and Thermogravimetric Analysis (TGA).
# (§3) In Vivo Skin Sensitizing Potency Studies. The LLNA was used to assess the skin sensitizing potency of PinoDGE. […] The standard vehicle, acetone: olive oil (AOO) (4:1), was initially used as the vehicle. […] Pure acetone is described as a suitable vehicle in the LLNA ([Jowsey et al., 2008]); however, a closer match to AOO was desired, leading to the choice of AOO 16:1.
# [8] = Cross-linking with TETA and thermogravimetric analysis (TGA); format: physicochemical
# Experimental: as §2
# Cross-Linking of PinoDGE with TETA. […] Initial decomposition temperature (IDT) indicated the apparent thermal stability of the epoxy resin.
# [9] = Solubility in the LLNA test vehicle; format: physicochemical
# Description: as §3
# [10] = after 45 min, pH 7.4 phosphate buffer/DMSO
# [11] = cross-linked with TETA, TGA under nitrogen
# [12] = cured epoxy resin, Horwitz-Metzger equation
# [13] = LLNA, ref Niklasson et al., 2009
# [14] = AOO 16:1, 10% w/v (0.21 M), precipitating from solution on the ears of the mice
structure (smiles),measurement,setting,value
"COc1ccccc1OCC1CO1 (centres unmarked) [Compound 1, 2-((2-methoxyphenoxy)methyl)oxirane]",ECKS1.5,[1],23 µM
same,ECKS4.5,[1],64 µM
"O=[N+]([O-])c1ccccc1OCC1CO1 (centres unmarked) [Compound 2, 2-((2-nitrophenoxy)methyl)oxirane]",peptide remaining,"model peptide AcPHCKRM; after 40 min, pH 7.4",28%
same,peptide remaining,"model peptide AcPHCKRM; at 200 min, pH 7.4",24%
same,Classification,[1],Sensitizer
same,ECKS1.5,[1],12 µM
same,ECKS4.5,[1],37 µM
same,IC50 at 48 h,[2],88 µM
"CC(C)(c1ccc(OCC2CO2)cc1)c1ccc(OCC2CO2)cc1 (centres unmarked) [DGEBA, diglycidyl ether of bisphenol A]",peptide remaining,model peptide AcPHCKRM; [10],37%
same,peptide remaining,"model peptide AcPHCKRM; after 85 min, pH 7.4",18%
same,peptide remaining,"model peptide AcPHCKRM; after 205 min, pH 7.4",7%
same,IDT (initial decomposition temperature),[3]; [11],358 ˚C
same,Rmax (maximum weight loss rate),[3]; [11],−1.58 %/˚C
same,Tmax (temperature at maximum rate of weight loss),[3]; [11],382 ˚C
same,Ea (activation energy for decomposition),[3]; [12],22.9 kcal/mol
same,ECKS1.5,[4],5.2 µM
same,ECKS4.5,[4],10 µM
same,IC50,[5],22 µM
same,EC3,CBA/Ca mice [6]; [13],0.036 M
same,Classification as sensitizer,"mice and guinea pigs; mice and guinea pigs, ref Thorgeirsson et al., 1978, Delaine et al., 2011, Pontén et al., 2002, Basketter et al., 2005",strong sensitizers
"c1cc(OCC2CO2)ccc1Cc1ccc(OCC2CO2)cc1 (centres unmarked) [DGEBF, diglycidyl ether of bisphenol F]",Classification as sensitizer,mice and guinea pigs; in vivo,strong sensitizers
"CCCCCCC(C=O)=Cc1ccccc1 [HCA, hexylcinnamic aldehyde, reference compound]",EC3,CBA/Ca mice [7]; control experiment in AOO 16:1,11.8 % w/v
same,EC3,"CBA/Ca mice [6]; reported values in 4:1 AOO, ref OECD, 2010",4.4–14.7 % w/v
"c1ccc(OCC2CO2)cc1 (centres unmarked) [PGE, phenylglycidyl ether]",peptide remaining,"model peptide AcPHCKRM; after 40 min, pH 7.4",35%
same,peptide remaining,"model peptide AcPHCKRM; at 200 min, pH 7.4",26%
same,Imax (fold induction),"[4]; average maximal induction of gene activity, ref Delaine et al., 2011",56 fold induction
same,ECKS1.5,"[4]; extrapolated concentration for 1.5 fold luciferase induction, ref Delaine et al., 2011",16 µM
same,ECKS4.5,"[4]; extrapolated concentration for 4.5 fold luciferase induction, ref Delaine et al., 2011",63 µM
same,IC50,[5],182 µM
same,EC3,CBA/Ca mice [6]; [13],0.031 M
same,LLNA classification,"CBA/Ca mice [6]; ref Niklasson et al., 2009",strong sensitizer
"COc1cc([C@H]2OC[C@H]3[C@@H]2CO[C@@H]3c2ccc(OCC3CO3)c(OC)c2)ccc1OCC1CO1 (some centres unmarked) [PinoDGE, pinoresinol diglycidyl ether]",peptide remaining,model peptide AcPHCKRM; [10],8%
same,peptide remaining,"model peptide AcPHCKRM; after 85 min, pH 7.4",5%
same,Classification,[1],skin sensitizer
same,ECKS1.5,[1],2.5 µM
same,ECKS4.5,[1],7.4 µM
same,IC50 at 48 h,[2],24 µM
same,(3H)thymidine incorporation,"CBA/Ca mice [7]; AOO 4:1, 0.10% w/v (0.0021 M)",280 dpm/lymph node
same,SI,"CBA/Ca mice [7]; AOO 4:1, 0.10% w/v (0.0021 M)",0.94
same,(3H)thymidine incorporation,"CBA/Ca mice [7]; AOO 4:1, 1.0% w/v (0.021 M)",368 dpm/lymph node
same,SI,"CBA/Ca mice [7]; AOO 4:1, 1.0% w/v (0.021 M)",1.23
same,(3H)thymidine incorporation,"CBA/Ca mice [7]; AOO 4:1, 2.5% w/v (0.053 M)",166 dpm/lymph node
same,SI,"CBA/Ca mice [7]; AOO 4:1, 2.5% w/v (0.053 M)",0.56
same,(3H)thymidine incorporation,"CBA/Ca mice [7]; AOO 4:1, 3.0% w/v (0.064 M)",325 dpm/lymph node
same,SI,"CBA/Ca mice [7]; AOO 4:1, 3.0% w/v (0.064 M)",1.09
same,(3H)thymidine incorporation,"CBA/Ca mice [7]; AOO 4:1, 5.0% w/v (0.11 M)",327 dpm/lymph node
same,SI,"CBA/Ca mice [7]; AOO 4:1, 5.0% w/v (0.11 M)",1.10
same,(3H)thymidine incorporation,"CBA/Ca mice [7]; AOO 16:1, 2.0% w/v (0.043 M)",130 dpm/lymph node
same,SI,"CBA/Ca mice [7]; AOO 16:1, 2.0% w/v (0.043 M)",0.52
same,(3H)thymidine incorporation,"CBA/Ca mice [7]; AOO 16:1, 4.0% w/v (0.085 M)",180 dpm/lymph node
same,SI,"CBA/Ca mice [7]; AOO 16:1, 4.0% w/v (0.085 M)",0.73
same,(3H)thymidine incorporation,"CBA/Ca mice [7]; AOO 16:1, 6.0% w/v ([…])",195 dpm/lymph node
same,SI,"CBA/Ca mice [7]; AOO 16:1, 6.0% w/v ([…])",0.79
same,(3H)thymidine incorporation,"CBA/Ca mice [7]; AOO 16:1, 8.0% w/v (0.17 M)",480 dpm/lymph node
same,SI,"CBA/Ca mice [7]; AOO 16:1, 8.0% w/v (0.17 M)",1.94
same,(3H)thymidine incorporation,CBA/Ca mice [7]; [14],180 dpm/lymph node
same,SI,CBA/Ca mice [7]; [14],0.73
same,EC3,"CBA/Ca mice [7]; LLNA, AOO 4:1 and AOO 16:1",> 0.17 M
same,SI,"CBA/Ca mice [7]; any of the concentrations tested, both vehicles",≤ 3
same,LLNA classification,CBA/Ca mice [7]; concentrations up to 0.17 M,not classified as a skin sensitizer
same,maximum rate of degradation (Rmax) relative to DGEBA,[8]; Rmax as percentage of that of DGEBA,58%
same,IDT (initial decomposition temperature),[8]; [11],338 ˚C
same,Rmax (maximum weight loss rate),[8]; [11],−0.92 %/˚C
same,Tmax (temperature at maximum rate of weight loss),[8]; [11],370 ˚C
same,Ea (activation energy for decomposition),[8]; [12],30.6 kcal/mol
same,IDT lower than that of DGEBA,[8]; difference to DGEBA polymer,20 °C
same,Tmax lower than that of DGEBA,[8]; difference to DGEBA polymer,12 °C
same,Solubility in vehicle,"[9]; AOO 16:1, precipitated from a 10% w/v solution",up to 8 % w/v
same,Solubility in vehicle,[9]; AOO (4:1),≤ 5 % w/v
same,solubility,"[9]; acetone:olive oil (AOO) 4:1, organic solvent or mixture, AOO (4:1)",≤ 110 mM
same,solubility,"[9]; acetone:olive oil (AOO) 16:1, organic solvent or mixture, AOO 16:1, precipitated from a 10% w/v solution",≤ 170 mM

# Reference: paper PMC9082971, “Nature-derived epoxy resins: Synthesis, allergenicity, and thermosetting properties of pinoresinol diglycidyl ether” (Toxicology and Industrial Health, 2022)
